Earlier results in US11395811B2, “Compositions comprising a fatty acid oil mixture comprising EPA and DHA in free acid form and a surfactant, and methods and uses thereof” (ProNova BioPharma Norge AS, priority 2009, dated 2022).

Settings: Brij surfactants, Table 2

Row | Substance | HLB Value
1 | Polyoxyethylene (2) cetyl ether [Brij ® 52] | 5.3
2 | Polyoxyethylene (2) oleyl ether [Brij ® 92V] | 4.9
3 | Polyoxyethylene (2) oleyl ether [Brij ® 93] | 4
4 | Polyoxyethylene(4) lauryl ether [Brij ® 30] | 9.7
5 | polyethylene glycol oleyl ether [Brij ® 96V] | 12.4
6 | polyoxyethylene (2) stearyl ether [Brij ® 72] | 4.9
7 | polyoxyethylene (100) stearyl ether [Brij ® 700] | 18

Same assay, conditions: Myrj surfactants, Table 5

Row | Substance | HLB Value
8 | polyoxyethylene monostearate [Myrj ® 45] | 11.1
9 | polyoxyethylene monostearate [Myrj ® 49] | 15.0
10 | polyoxyethylene monostearate [Myrj ® 52] | 16.9
11 | polyoxyethylene monostearate [Myrj ® 53] | 17.9

Same assay, conditions: Tween surfactants, Table 4

Row | Substance | HLB Value
12 | polyoxyethylene (20) sorbitan monolaurate [Tween ® 20] | 16.0
